Experimental findings from US20250074892A1, “CARBONYL BRIDGED HETEROCYCLIC COMPOUND, AND COMPOSITION AND APPLICATION THEREOF” (BEIJING SCITECH-MQ PHARMACEUTICALS LIMITED, priority 2022, published 2025) are described below.

Where only a bound is given, the exact number is not on record here.

One assay concerns HT29 cells. As to the kind of experiment: Inhibition of cell necrosis (CCK8 method), HT29 cells. It is filed as cell-based, human. Particulars: for IC50: HT29, Human TNF-α/AT-406/Z-VAD-FMK, 16 hours, CCK8. As for the experimental part:
(§1) In this assay example 2, under the condition of inducing programmed cell necrosis of HT29 and L929 cell lines, different concentrations of the test compounds were added to test the IC50 of the rescue effect of the test compounds on the programmed necrosis.
(§2) • Compounds: dissolved in DMSO to make a 10 mM solution; • TNF-α: initial concentration of 100 µg/mL; • Z-VAD-FMK: dissolved in DMSO to make a 10 mM solution; • AT-406: dissolved in DMSO to make a 10 mM solution. • Cell lines: HT29 cells were cultured in McCoy's 5A medium containing 10% fetal bovine serum, 100 U/mL penicillin, and 100 µg/mL streptomycin, and L929 cells were cultured in MEM medium containing 10% horse serum, 100 U/mL penicillin, and 100 µg/mL streptomycin.
(§3) 1. The test compound was dissolved in DMSO to form a stock solution, and a gradient dilution was performed; the solution was then diluted with the corresponding culture medium to obtain a solution with 10 times the working concentration.
(§4) 2. The cells in the logarithmic growth phase were diluted with culture medium to a specific cell concentration. 80 µL of the cell suspension was added to a 96-well plate, so that the cell densities of HT29 and L929 were 1.2*10^4 cells/well and 2.0*10^4 cells/well, respectively. The plate was cultured in a 37° C., 5% carbon dioxide incubator overnight.
(§5) 3. […] of the compound solution was added to each well of the 96-well plate inoculated with cells. The compounds to be tested were serially diluted 4-fold to obtain 9 concentrations in duplicate, starting from a maximum concentration of 10 μM. At the same time, a control group without compound addition was set up.
(§6) 4. After the cells were cultured for another 30 minutes, 10 μL of the inducer mixture was added to each well. The final concentrations of Human TNF-α, AT-406 and Z-VAD-FMK in HT29 cells were 20 ng/mL, […] and 20 μM, respectively; and the final concentrations of Murine TNF-α and Z-VAD-FMK in L929 cells were 20 ng/mL and 25 μM, respectively.
(§7) 5. The 96-well plate in which compounds and inducer were added was placed in a 37° C., 5% carbon dioxide incubator for further culture, wherein HT29 cells were cultured for 16 hours and L929 cells were cultured for 4-8 hours. Cell viability was detected by CCK8. GraphPad Prism software was used to prepare a dose-effect curve and IC50 was calculated.
For orientation: Tetrazolium dyes change colour on reduction, which living cells bring about.

The next assay relates to L929 cells. As to the kind of experiment: Inhibition of cell necrosis (CCK8 method), L929 cells. It is filed as cell-based, mouse. The note with it: for IC50: 4-8 hours, CCK8. On the procedure:
as §1, §2, §3, §4, §5, §6, §7

The mark [1] stands for this setting: Mus musculus, L929, L929, Murine TNF-α/Z-VAD-FMK.

Consider `O=C(C1CCN(c2cc(-c3cc(OCCCO)ccc3Cl)ccn2)CC1)N1N=CCC1c1cc(F)cc(F)c1` (centres unmarked) [Example 17, (1-(4-(2-chloro-5-(3-hydroxypropoxy)phenyl)pyridin-2-yl)piperidin-4-yl)(5-(3,5-difluorophenyl)-4,5-dihydro-1H-pyrazol-1-yl)methanone], for which the IC50 (commonly the concentration at which inhibition is half-maximal) in the assay with HT29 cells (Homo sapiens, HT-29, 16 h) fell in the range of 10 to 50 nM; in the assay with L929 cells (setting [1]) it was 50 to 100 nM.

Regarding `O=C(C1CCN(c2cc(-c3cc(OCCCCCO)ccc3F)ccn2)CC1)N1N=CCC1c1cc(F)cc(F)c1` (centres unmarked) [Example 25, (5-(3,5-difluorophenyl)-4,5-dihydro-1H-pyrazol-1-yl)(1-(4-(2-fluoro-5-((5-hydroxypentyl)oxy)phenyl)pyridin-2-yl)piperidin-4-yl)methanone], the IC50 is at most 10 nM with HT29 cells (Homo sapiens, HT-29, 16 h) and 10 to 50 nM in the assay on L929 cells (setting [1]).

For `COCCCOc1ccc(F)c(-c2ccnc(N3CCC(C(=O)N4N=CCC4c4cc(F)cc(F)c4)CC3)c2)c1` (centres unmarked) [Example 30, (5-(3,5-difluorophenyl)-4,5-dihydro-1H-pyrazol-1-yl)(1-(4-(2-fluoro-5-(3-methoxypropoxy)phenyl)pyridin-2-yl)piperidin-4-yl)methanone], the concentration for half-maximal inhibition (IC50) with HT29 cells (Homo sapiens, HT-29, 16 h) was at most 10 nM; in the assay on L929 cells (setting [1]) it was 50 to 100 nM.

With `CC(C)(O)CCCOc1ccc(F)c(-c2ccnc(N3CCC(C(=O)N4N=CC[C@H]4c4cc(F)cc(F)c4)CC3)c2)c1` (racemic) [Example 43], the half-inhibitory concentration (IC50) in the assay with HT29 cells (Homo sapiens, HT-29, 16 h) is at most 10 nM; with L929 cells (setting [1]), 10 to 50 nM.

For `COCCCCOc1cccc(-c2ccnc(N3CCC(C(=O)N4N=CCC4c4cc(F)cc(F)c4)CC3)c2)c1` (centres unmarked) [Example 13, (5-(3,5-difluorophenyl)-4,5-dihydro-1H-pyrazol-1-yl)(1-(4-(3-(4-methoxybutoxy)phenyl)pyridin-2-yl)piperidin-4-yl)methanone], the IC50 with HT29 cells (Homo sapiens, HT-29, 16 h) lay in the range of 10 to 50 nM; with L929 cells (setting [1]) it was 50 to 100 nM.

As to `Cc1ccc(OCCCCO)cc1-c1ccnc(N2CCC(C(=O)N3N=CCC3c3cc(F)cc(F)c3)CC2)c1` (centres unmarked) [Example 35, (5-(3,5-difluorophenyl)-4,5-dihydro-1H-pyrazol-1-yl)(1-(4-(5-(4-hydroxybutoxy)-2-methylphenyl)pyridin-2-yl)piperidin-4-yl)methanone], the IC50 lay within 10 to 50 nM in the assay with HT29 cells and 50 to 100 nM in the assay with L929 cells (L929, Murine TNF-α/Z-VAD-FMK).

Turning to `NC(=O)c1ccc(N2CCC(C(=O)N3N=CCC3c3ccccc3)CC2)nc1` (centres unmarked) [compound 1, reference compound], the “inhibitory activity against human HT29 cells” value in the assay on HT29 cells (HT29 necrosis) was “significantly inferior to those of the compounds of the present application”. Also, the IC50 is 400 to 4000 nM in the assay on HT29 cells (Homo sapiens, HT-29, 16 h) and over 4000 nM with L929 cells (setting [1]). Also, the “inhibitory activity against mouse L929 cells” value in the assay with L929 cells (L929 necrosis) was “almost no inhibitory activities”.

On to `COCCOc1ccc(Cl)c(-c2ccnc(N3CCC(C(=O)N4N=CCC4c4cc(F)cc(F)c4)CC3)c2)c1` (centres unmarked) [Example 16, (1-(4-(2-chloro-5-(2-methoxyethoxy)phenyl)pyridin-2-yl)piperidin-4-yl)(5-(3,5-difluorophenyl)-4,5-dihydro-1H-pyrazol-1-yl)methanone], for which the IC50 with HT29 cells (Homo sapiens, HT-29, 16 h) fell in the range of 10 to 50 nM; in the assay on L929 cells (setting [1]), 50 to 100 nM.

Turning to `O=C(C1CCN(c2cc(-c3cccc(OC4CCOCC4)c3)ccn2)CC1)N1N=CCC1c1cc(F)cc(F)c1` (centres unmarked) [Example 3, (5-(3,5-difluorophenyl)-4,5-dihydro-1H-pyrazol-1-yl)(1-(4-(3-((tetrahydro-2H-pyran-4-yl)oxy)phenyl)pyridin-2-yl)piperidin-4-yl)methanone], the half-maximal inhibitory concentration (IC50) in the assay with HT29 cells (Homo sapiens, HT-29, 16 h) was 10 to 50 nM; in the assay on L929 cells (setting [1]), 50 to 100 nM.

Consider `CC(C)(O)COc1ccc(F)c(-c2ccnc(N3CCC(C(=O)N4N=CCC4c4cc(F)cc(F)c4)CC3)c2)c1` (centres unmarked) [Example 47, (5-(3,5-difluorophenyl)-4,5-dihydro-1H-pyrazol-1-yl-5-deuterium)(1-(4-(2-fluoro-5-(2-hydroxy-2-methylpropoxy)phenyl)pyridin-2-yl)piperidin-4-yl)methanone], for which the IC50 in the assay on HT29 cells was in the range of 10 to 50 nM; in the assay with L929 cells (L929, Murine TNF-α/Z-VAD-FMK), 10 to 50 nM.

As for `O=C(C1CCN(c2cc(-c3cc(OCCCCO)ccc3F)ccn2)CC1)N1N=CCC1c1cc(F)cc(F)c1` (centres unmarked) [Example 36, (5-(3,5-difluorophenyl)-4,5-dihydro-1H-pyrazol-1-yl)(1-(4-(2-fluoro-5-(4-hydroxybutoxy)phenyl)pyridin-2-yl)piperidin-4-yl)methanone], the IC50 in the assay with HT29 cells (Homo sapiens, HT-29, 16 h) was at most 10 nM; in the assay on L929 cells (setting [1]), 50 to 100 nM.

With `CC(C)(O)CCOc1ccc(F)c(-c2ccnc(N3CCC(C(=O)N4N=CC[C@H]4c4cc(F)cc(F)c4)CC3)c2)c1` (racemic) [Example 41], the concentration for half-maximal inhibition (IC50) in the assay on HT29 cells (Homo sapiens, HT-29, 16 h) is at most 10 nM; with L929 cells (setting [1]), 10 to 50 nM.

With `Cc1ccc(OCCC2CCOCC2)cc1-c1ccnc(N2CCC(C(=O)N3N=CCC3c3cc(F)cc(F)c3)CC2)c1` (centres unmarked) [Example 11, (5-(3,5-difluorophenyl)-4,5-dihydro-1H-pyrazol-1-yl)(1-(4-(2-methyl-5-(2-(tetrahydro-2H-pyran-4-yl)ethoxy)phenyl)pyridin-2-yl)piperidin-4-yl)methanone], the IC50 in the assay on HT29 cells (Homo sapiens, HT-29, 16 h) was in the range of 10 to 50 nM; in the assay on L929 cells (setting [1]), 50 to 100 nM.

As for `O=C(C1CCN(c2nccc(-c3cc(OCCCO)ccc3F)n2)CC1)N1N=CCC1c1cc(F)cc(F)c1` (centres unmarked) [Example 38, (5-(3,5-difluorophenyl)-4,5-dihydro-1H-pyrazol-1-yl)(1-(4-(2-fluoro-5-(3-hydroxypropoxy)phenyl)pyrimidin-2-yl)piperidin-4-yl)methanone], the IC50 in the assay on HT29 cells (Homo sapiens, HT-29, 16 h) lay within 10 to 50 nM; with L929 cells (setting [1]), 50 to 100 nM.

On to `Cc1ccc(OCCCO)cc1-c1ccnc(N2CCC(C(=O)N3N=CCC3c3ccccc3F)CC2)c1` (centres unmarked) [Example 29, (5-(2-fluorophenyl)-4,5-dihydro-1H-pyrazol-1-yl)(1-(4-(5-(3-hydroxypropoxy)-2-methylphenyl)pyridin-2-yl)piperidin-4-yl)methanone], for which the IC50 lay within 10 to 50 nM in the assay on HT29 cells (Homo sapiens, HT-29, 16 h) and 50 to 100 nM in the assay with L929 cells (L929, Murine TNF-α/Z-VAD-FMK).

On to `COCCCCOc1ccc(C)c(-c2ccnc(N3CCC(C(=O)N4N=CCC4c4cc(F)cc(F)c4)CC3)c2)c1` (centres unmarked) [Example 32, (5-(3,5-difluorophenyl)-4,5-dihydro-1H-pyrazol-1-yl)(1-(4-(5-(4-methoxybutoxy)-2-methylphenyl)pyridin-2-yl)piperidin-4-yl)methanone], for which the IC50 with HT29 cells (Homo sapiens, HT-29, 16 h) was at most 10 nM; with L929 cells (L929, Murine TNF-α/Z-VAD-FMK), 10 to 50 nM.

Turning to `CC(C)(O)CCCCOc1ccc(F)c(-c2ccnc(N3CCC(C(=O)N4N=CCC4c4cc(F)cc(F)c4)CC3)c2)c1` (centres unmarked) [Example 26, (5-(3,5-difluorophenyl)-4,5-dihydro-1H-pyrazol-1-yl)(1-(4-(2-fluoro-5-((5-hydroxy-5-methylhexyl)oxy)phenyl)pyridin-2-yl)piperidin-4-yl)methanone], the IC50 in the assay on HT29 cells (Homo sapiens, HT-29, 16 h) is at most 10 nM; in the assay with L929 cells (setting [1]) it was 10 to 50 nM.

`COCCOc1ccc(C)c(-c2ccnc(N3CCC(C(=O)N4N=CCC4c4cc(F)cc(F)c4)CC3)c2)c1` (centres unmarked) [Example 4, (5-(3,5-difluorophenyl)-4,5-dihydro-1H-pyrazol-1-yl)(1-(4-(5-(2-methoxyethoxy)-2-methylphenyl)pyridin-2-yl)piperidin-4-yl)methanone]: the IC50 in the assay on HT29 cells (Homo sapiens, HT-29, 16 h) is 10 to 50 nM; in the assay on L929 cells (setting [1]) it was 10 to 50 nM.

As for `CC(C)(O)CCOc1ccc(F)c(-c2ccnc(N3CCC(C(=O)N4N=CCC4c4cc(F)cc(F)c4)CC3)n2)c1` (centres unmarked) [Example 39, (5-(3,5-difluorophenyl)-4,5-dihydro-1H-pyrazol-1-yl)(1-(4-(2-fluoro-5-(3-hydroxy-3-methylbutoxy)phenyl)pyrimidin-2-yl)piperidin-4-yl)methanone], the 50% inhibitory concentration (IC50) with HT29 cells (Homo sapiens, HT-29, 16 h) is at most 10 nM; in the assay on L929 cells (setting [1]), 50 to 100 nM.

In the case of `CCC(O)(CC)COc1ccc(F)c(-c2ccnc(N3CCC(C(=O)N4N=CCC4c4cc(F)cc(F)c4)CC3)c2)c1` (centres unmarked) [Example 44, [5-(3,5-difluorophenyl)-4,5-dihydro-1H-pyrazol-1-yl]-[1-[4-[5-(2-ethyl-2-hydroxybutoxy)-2-fluorophenyl]pyridin-2-yl]piperidin-4-yl]methanone], the half-maximal inhibitory concentration (IC50) with HT29 cells (Homo sapiens, HT-29, 16 h) was at most 10 nM; in the assay on L929 cells (setting [1]) it was 10 to 50 nM.

In the case of `Cc1ccc(OCCCC(C)(C)O)cc1-c1ccnc(N2CCC(C(=O)N3N=CCC3c3cc(F)cc(F)c3)CC2)c1` (centres unmarked) [Example 10, (5-(3,5-difluorophenyl)-4,5-dihydro-1H-pyrazol-1-yl)(1-(4-(5-((4-hydroxy-4-methylpentyl)oxy)-2-methylphenyl)pyridin-2-yl)piperidin-4-yl)methanone], the half-inhibitory concentration (IC50) in the assay with HT29 cells (Homo sapiens, HT-29, 16 h) is at most 10 nM; in the assay with L929 cells (setting [1]), at most 10 nM.
